{"source": "patent US20250360235A1", "about": "“RADI[…] AND METHOD FOR RADIOLABELLING” (Telix Innovations SA, priority 2024, published 2025)", "experiment": "Radiochemical purity by iTLC over time after radiolabelling", "format": "physicochemical", "method": "Table 1 to Table 5 show the results of various radiolabelling experiments on radiochemical purity and the chelation yield. The radiolabelling experiments in the tables are carried out as described in: • Example 1 for when the gallium-68 source is GE Liquid target generator and EZAG GalliaPharm generator; • Example 2 for when the gallium-68 source is IRE Galli Eo generator; • Example 3 for when the gallium-68 source is GE solid target generator;\nHowever, the experiments were carried out with the amount of ascorbic acid as indicated in the Tables 1 to 5, and the activity as indicated in the Tables 1 to 5. Radiochemical purities were measured at various times (T0, T1, T4, T6) after the radiolabelled experiments have been conducted.\nThe kits of Example 1, Example 2 or Example 3, with amounts of ascorbic acid as set out in Table 7 were used in the experiments for the ascorbic acid bracketing matrix. Three strengths of [^68Ga]Ga-PSMA-11 will be tested, i.e. 50 mCi/ml, 7 mCi/ml and 1 mCi/ml. Radiochemical purity was determined at different time points (TO, T1, T4 or T6), as set out in Table 7.", "key": {"[1]": {"settings": "validation batches, 25 mg ascorbic acid, 51.6-62.7 mCi, 4.56-5.88 mCi/mL, IRE Galli Eo, average of 3, T0"}, "[2]": {"settings": "validation batches, 25 mg ascorbic acid, 51.6-62.7 mCi, 4.56-5.88 mCi/mL, IRE Galli Eo, average of 3, T4 (4 h)"}, "[3]": {"settings": "validation batches, 25 mg ascorbic acid, 51.6-62.7 mCi, 4.56-5.88 mCi/mL, IRE Galli Eo, n=3, T0"}, "[4]": {"settings": "validation batches, 25 mg ascorbic acid, 51.6-62.7 mCi, 4.56-5.88 mCi/mL, IRE Galli Eo, n=3, T4 (4 h)"}, "[5]": {"settings": "validation batches, 25 mg ascorbic acid, 53.3-74.4 mCi, 5.03-6.92 mCi/mL, GE Liquid target, average of 3, T0"}, "[6]": {"settings": "validation batches, 25 mg ascorbic acid, 53.3-74.4 mCi, 5.03-6.92 mCi/mL, GE Liquid target, average of 3, T4 (4 h)"}, "[7]": {"settings": "validation batches, 25 mg ascorbic acid, 53.3-74.4 mCi, 5.03-6.92 mCi/mL, GE Liquid target, n=3, T0"}, "[8]": {"settings": "validation batches, 25 mg ascorbic acid, 53.3-74.4 mCi, 5.03-6.92 mCi/mL, GE Liquid target, n=3, T4 (4 h)"}, "[9]": {"settings": "validation batches, 25 mg ascorbic acid, 65.0-66.4 mCi, 5.74-6.15 mCi/mL, EZAG GalliaPharm, average of 3, T0"}, "[10]": {"settings": "validation batches, 25 mg ascorbic acid, 65.0-66.4 mCi, 5.74-6.15 mCi/mL, EZAG GalliaPharm, average of 3, T4 (4 h)"}, "[11]": {"settings": "validation batches, 25 mg ascorbic acid, 65.0-66.4 mCi, 5.74-6.15 mCi/mL, EZAG GalliaPharm, n=3, T0"}, "[12]": {"settings": "validation batches, 25 mg ascorbic acid, 65.0-66.4 mCi, 5.74-6.15 mCi/mL, EZAG GalliaPharm, n=3, T4 (4 h)"}, "[13]": {"settings": "validation batches, 25 mg ascorbic acid, 537-551 mCi, 50.2-51.6 mCi/mL, GE Solid Target, average of 3, T0"}, "[14]": {"settings": "validation batches, 25 mg ascorbic acid, 537-551 mCi, 50.2-51.6 mCi/mL, GE Solid Target, average of 3, T6 (6 h)"}, "[15]": {"settings": "validation batches, 25 mg ascorbic acid, 537-551 mCi, 50.2-51.6 mCi/mL, GE Solid Target, n=3, T0"}, "[16]": {"settings": "validation batches, 25 mg ascorbic acid, 537-551 mCi, 50.2-51.6 mCi/mL, GE Solid Target, n=3, T6 (6 h)"}, "[17]": {"settings": "validation batches, 25 mg ascorbic acid, 555-564 mCi, 51.1-52.7 mCi/mL, ARTMS Solid Target, average of 3, T0"}, "[18]": {"settings": "validation batches, 25 mg ascorbic acid, 555-564 mCi, 51.1-52.7 mCi/mL, ARTMS Solid Target, average of 3, T6 (6 h)"}, "[19]": {"settings": "validation batches, 25 mg ascorbic acid, 555-564 mCi, 51.1-52.7 mCi/mL, ARTMS Solid Target, n=3, T0"}, "[20]": {"settings": "validation batches, 25 mg ascorbic acid, 555-564 mCi, 51.1-52.7 mCi/mL, ARTMS Solid Target, n=3, T6 (6 h)"}}, "data": [{"smiles": "O=C([O-])CN(CCN(CC(=O)[O-])Cc1cc(CCC(=O)NCCCCCC(=O)NCCCC[C@H](NC(=O)N[C@@H](CCC(=O)O)C(=O)O)C(=O)O)ccc1[O-])Cc1cc(CCC(=O)O)ccc1[O-].[68Ga+3].[OH3+]", "note": "[[^68Ga]PSMA-11, gallium-68 radiolabelled Glu-urea-Lys-HBED-CC (gozetotide or PSMA-11)]", "values": [{"measurement": "Radiochemical Purity (iTLC) Ga-68 PSMA-11 (%)", "setting": "bracketing ~50 mCi/mL, 31.25 mg ascorbic acid, 500-544 mCi, 48.1-51.7 mCi/mL, GE Solid Target, average of 2, T6 (6 h)", "result": 99, "unit": "%"}, {"measurement": "Radiochemical Purity (iTLC) Free and Colloidal Ga-68 (%)", "setting": "[1]", "result": 0, "unit": "%"}, {"measurement": "Radiochemical Purity (iTLC) Ga-68 PSMA-11 (%)", "setting": "[1]", "result": 100, "unit": "%"}, {"measurement": "Radiochemical Purity (iTLC) Free and Colloidal Ga-68 (%)", "setting": "[2]", "result": 1, "unit": "%"}, {"measurement": "Radiochemical Purity (iTLC) Ga-68 PSMA-11 (%)", "setting": "[2]", "result": 99, "unit": "%"}, {"measurement": "Radiochemical Purity (iTLC) Free and Colloidal Ga-68 (%)", "setting": "[3]", "result": "C (C = all results conform to specifications)"}, {"measurement": "Radiochemical Purity (iTLC) Ga-68 PSMA-11 (%)", "setting": "[3]", "result": "C (C = all results conform to specifications)"}, {"measurement": "Radiochemical Purity (iTLC) Free and Colloidal Ga-68 (%)", "setting": "[4]", "result": "C (C = all results conform to specifications)"}, {"measurement": "Radiochemical Purity (iTLC) Ga-68 PSMA-11 (%)", "setting": "[4]", "result": "C (C = all results conform to specifications)"}, {"measurement": "Radiochemical Purity (iTLC) Free and Colloidal Ga-68 (%)", "setting": "[5]", "result": 1, "unit": "%"}, {"measurement": "Radiochemical Purity (iTLC) Ga-68 PSMA-11 (%)", "setting": "[5]", "result": 99, "unit": "%"}, {"measurement": "Radiochemical Purity (iTLC) Free and Colloidal Ga-68 (%)", "setting": "[6]", "result": 0, "unit": "%"}, {"measurement": "Radiochemical Purity (iTLC) Ga-68 PSMA-11 (%)", "setting": "[6]", "result": 100, "unit": "%"}, {"measurement": "Radiochemical Purity (iTLC) Free and Colloidal Ga-68 (%)", "setting": "[7]", "result": "C (C = all results conform to specifications)"}, {"measurement": "Radiochemical Purity (iTLC) Ga-68 PSMA-11 (%)", "setting": "[7]", "result": "C (C = all results conform to specifications)"}, {"measurement": "Radiochemical Purity (iTLC) Free and Colloidal Ga-68 (%)", "setting": "[8]", "result": "C (C = all results conform to specifications)"}, {"measurement": "Radiochemical Purity (iTLC) Ga-68 PSMA-11 (%)", "setting": "[8]", "result": "C (C = all results conform to specifications)"}, {"measurement": "Radiochemical Purity (iTLC) Free and Colloidal Ga-68 (%)", "setting": "[9]", "result": 0, "unit": "%"}, {"measurement": "Radiochemical Purity (iTLC) Ga-68 PSMA-11 (%)", "setting": "[9]", "result": 100, "unit": "%"}, {"measurement": "Radiochemical Purity (iTLC) Free and Colloidal Ga-68 (%)", "setting": "[10]", "result": 2, "unit": "%"}, {"measurement": "Radiochemical Purity (iTLC) Ga-68 PSMA-11 (%)", "setting": "[10]", "result": 98, "unit": "%"}, {"measurement": "Radiochemical Purity (iTLC) Free and Colloidal Ga-68 (%)", "setting": "[11]", "result": "C (C = all results conform to specifications)"}, {"measurement": "Radiochemical Purity (iTLC) Ga-68 PSMA-11 (%)", "setting": "[11]", "result": "C (C = all results conform to specifications)"}, {"measurement": "Radiochemical Purity (iTLC) Free and Colloidal Ga-68 (%)", "setting": "[12]", "result": "C (C = all results conform to specifications)"}, {"measurement": "Radiochemical Purity (iTLC) Ga-68 PSMA-11 (%)", "setting": "[12]", "result": "C (C = all results conform to specifications)"}, {"measurement": "Radiochemical Purity (iTLC) Free and Colloidal Ga-68", "setting": "[13]", "result": 0, "unit": "%"}, {"measurement": "Radiochemical Purity (iTLC) Ga-68 PSMA-11", "setting": "[13]", "result": 100, "unit": "%"}, {"measurement": "Radiochemical Purity (iTLC) Free and Colloidal Ga-68", "setting": "[14]", "result": 1, "unit": "%"}, {"measurement": "Radiochemical Purity (iTLC) Ga-68 PSMA-11", "setting": "[14]", "result": 99, "unit": "%"}, {"measurement": "Radiochemical Purity (iTLC) Free and Colloidal Ga-68", "setting": "[15]", "result": "C (C = all results conform to specifications)"}, {"measurement": "Radiochemical Purity (iTLC) Ga-68 PSMA-11", "setting": "[15]", "result": "C (C = all results conform to specifications)"}, {"measurement": "Radiochemical Purity (iTLC) Free and Colloidal Ga-68", "setting": "[16]", "result": "C (C = all results conform to specifications)"}, {"measurement": "Radiochemical Purity (iTLC) Ga-68 PSMA-11", "setting": "[16]", "result": "C (C = all results conform to specifications)"}, {"measurement": "Radiochemical Purity (iTLC) Free and Colloidal Ga-68", "setting": "[17]", "result": 1, "unit": "%"}, {"measurement": "Radiochemical Purity (iTLC) Ga-68 PSMA-11", "setting": "[17]", "result": 99, "unit": "%"}, {"measurement": "Radiochemical Purity (iTLC) Free and Colloidal Ga-68", "setting": "[18]", "result": 0, "unit": "%"}, {"measurement": "Radiochemical Purity (iTLC) Ga-68 PSMA-11", "setting": "[18]", "result": 100, "unit": "%"}, {"measurement": "Radiochemical Purity (iTLC) Free and Colloidal Ga-68", "setting": "[19]", "result": "C (C = all results conform to specifications)"}, {"measurement": "Radiochemical Purity (iTLC) Ga-68 PSMA-11", "setting": "[19]", "result": "C (C = all results conform to specifications)"}, {"measurement": "Radiochemical Purity (iTLC) Free and Colloidal Ga-68", "setting": "[20]", "result": "C (C = all results conform to specifications)"}, {"measurement": "Radiochemical Purity (iTLC) Ga-68 PSMA-11", "setting": "[20]", "result": "C (C = all results conform to specifications)"}]}]}
